In ChEMBL document CHEMBL5375989, “Pioneering 4,11-Dioxo-4,11-dihydro-1H-anthra[2,3-d]imidazol-3-ium Compounds as Promising Survivin Inhibitors by Targeting ILF3/NF110 for Cancer Therapy” (J Med Chem, 2023):

What was measured:
[1] = system: 5637; assay: cells; settings: Homo sapiens, 5637, 48 h
Description: Antiproliferative activity against human 5637 cells assessed as inhibition of cell growth measured after 48 hrs by MTT assay

[2] = Antiproliferative activity against mouse L929 cells assessed as inhibition of cell growth measured after 48 hrs by MTT assay; type: toxicity, cell-based; settings: mouse, L929 cells
[3] = system: A549; assay: cells; settings: Homo sapiens, A549, 48 h
Description: Antiproliferative activity against human A549 cells assessed as inhibition of cell growth measured after 48 hrs by MTT assay

[4] = system: TE-1; assay: cells; settings: Homo sapiens, TE-1, 48 h
Description: Antiproliferative activity against human TE-1 cells assessed as inhibition of cell growth measured after 48 hrs by MTT assay

[5] = Selectivity index, ratio of IC50 for mouse L929 cells to IC50 for human A549 cells; type: toxicity; settings: L929 cells and A549 cells, read-out: Ratio IC50

| Structure (SMILES) | IC50 [1] [nM] | IC50 at 48 h [2] [nM] | IC50 [3] [nM] | IC50 [4] [nM] | selectivity ratio [5] |
| --- | --- | --- | --- | --- | --- |
| Cc1n(C(C)C)c2c([n+]1C)C(=O)c1cc3ccccc3cc1C2=O | 60 | 17900 | 90 | 150 | – |
| CC(C)=CCn1c2c([n+](C)c1C)C(=O)c1cc3ccccc3cc1C2=O | 400 | 5520 | 60 | 70 | – |
| Cn1c2c([n+](C)c1C1CC1)C(=O)c1ccccc1C2=O | – | 6200 | 80 | – | 78 |
| CCCn1c2c([n+](C)c1C)C(=O)c1cc3ccccc3cc1C2=O | 580 | 22100 | 1220 | 380 | – |
| C[n+]1cn(Cc2ccccc2)c2c1C(=O)c1cc3ccccc3cc1C2=O | 410 | 37100 | 490 | 110 | – |
| CCCCn1c[n+](C)c2c1C(=O)c1cc3ccccc3cc1C2=O | 590 | 65100 | 670 | 59000 | – |
| CC(C)=CCn1c[n+](C)c2c1C(=O)c1cc3ccccc3cc1C2=O | 1130 | 58700 | 1810 | 22000 | – |
| C[n+]1cn(Cc2cccc(F)c2)c2c1C(=O)c1cc3ccccc3cc1C2=O | 550 | 22800 | 910 | 270 | – |
| CCc1n(C)c2c([n+]1C)C(=O)c1ccccc1C2=O | – | 5600 | 160 | – | 35 |
| CCn1c2c([n+](CC)c1C)C(=O)c1cc3ccccc3cc1C2=O | 880 | 33800 | 70 | 420 | – |
| Cc1n(Cc2cccc(F)c2)c2c([n+]1C)C(=O)c1cc3ccccc3cc1C2=O | 890 | 45900 | 390 | 160 | – |
| COCCn1c2c([n+](C)c1C)C(=O)c1cc3ccccc3cc1C2=O | 70 | 11000 | 230 | 90 | – |
| CCn1c2c([n+](C)c1C)C(=O)c1cc3ccccc3cc1C2=O | 460 | 23300 | 210 | 80 | – |
| CCn1c[n+](CC)c2ccccc21 | – | > 200000 | > 100000 | – | < 10 |
| CCC(C)Cn1c[n+](C)c2c1C(=O)c1cc3ccccc3cc1C2=O (stereo not drawn) | 1510 | 83900 | 8400 | 700 | – |
| O=C1c2ccccc2C(=O)c2c1n(Cc1ccccc1)c[n+]2Cc1ccccc1 | – | 39000 | 820 | – | 47.6 |
| CCn1c[n+](CC)c2c(OC)ccc(OC)c21 | – | 95100 | 13600 | – | 7 |
| Cn1c2c([n+](C)c1-c1ccco1)C(=O)c1ccccc1C2=O | – | 7000 | 680 | – | 10 |
| COCCn1c[n+](CCOC)c2c1C(=O)c1ccccc1C2=O | – | 9900 | 610 | – | 16.2 |
| CC(C)CCn1c[n+](C)c2c1C(=O)c1cc3ccccc3cc1C2=O | 1780 | > 16400 | 9300 | 910 | – |
| CC1=C(C)C(=O)c2c(n(C)c[n+]2C)C1=O | – | 119000 | 32100 | – | 3.7 |
| Cc1n(C)c2c([n+]1C)C(=O)c1ccccc1C2=O | – | 2200 | 90 | – | 24 |
| CC(C)n1c[n+](C(C)C)c2c1C(=O)c1ccccc1C2=O | – | 18600 | 630 | – | 29.5 |
| Cc1n(CC#N)c2c([n+]1C)C(=O)c1cc3ccccc3cc1C2=O | 720 | 9570 | 460 | 670 | – |

| Structure (SMILES) | IC50 [1] [nM] | IC50 at 48 h [2] [nM] | IC50 [3] [nM] | IC50 [4] [nM] | selectivity ratio [5] |
| --- | --- | --- | --- | --- | --- |
| Cn1c2c([n+](C)c1-c1ccccc1F)C(=O)c1ccccc1C2=O | – | 9200 | 920 | – | 10 |
| CCC(C)n1c[n+](C)c2c1C(=O)c1cc3ccccc3cc1C2=O (stereo not drawn) | 2760 | > 100000 | 5650 | 2330 | – |
| Cn1c[n+](C)c2c(O)c3c(c(O)c21)C1C=CC3C1 (stereo not drawn) | – | 86000 | 31500 | – | 2.7 |
| Cc1n(Cc2ccc(F)cc2)c2c([n+]1C)C(=O)c1cc3ccccc3cc1C2=O | 1360 | 76800 | 640 | 250 | – |
| COCC[n+]1c2c(n(Cc3cnccn3)c1C)C(=O)c1cc3ccccc3cc1C2=O | 1050 | 141000 | 4500 | 910 | – |
| Cn1c2c([n+](C)c1C1CC1)C(=O)c1cc3ccccc3cc1C2=O | – | 15400 | 80 | – | 171 |
| Cc1n(CC2OCCO2)c2c([n+]1C)C(=O)c1cc3ccccc3cc1C2=O | 1650 | 79900 | 320 | 230 | – |
| COc1ccc(Cn2c[n+](C)c3c2C(=O)c2cc4ccccc4cc2C3=O)cc1 | 800 | 64400 | 860 | 80 | – |
| CCC(C)Cn1c2c([n+](C)c1C)C(=O)c1cc3ccccc3cc1C2=O (stereo not drawn) | 1360 | 43500 | 370 | 680 | – |
| CC(C)n1c[n+](C)c2c1C(=O)c1cc3ccccc3cc1C2=O | 750 | 84000 | 450 | 420 | – |
| Cc1n(CC(C)C)c2c([n+]1C)C(=O)c1cc3ccccc3cc1C2=O | 410 | 15400 | 60 | 80 | – |
| C[n+]1cn(Cc2ccccc2F)c2c1C(=O)c1cc3ccccc3cc1C2=O | 470 | 17700 | 380 | 190 | – |
| Cn1c[n+](C)c2c1C(=O)c1cccc([N+](=O)[O-])c1C2=O | – | 17500 | 40 | – | 438 |
| CCn1c[n+](C)c2c1C(=O)c1cc3ccccc3cc1C2=O | 100 | 49300 | 240 | 80 | – |
| CCc1n(C)c2c([n+]1C)C(=O)c1cc3ccccc3cc1C2=O | – | 14600 | 220 | – | 66 |
| Cc1n(Cc2ccccc2F)c2c([n+]1C)C(=O)c1cc3ccccc3cc1C2=O | 530 | 12600 | 460 | 550 | – |
| CCCCn1c2c([n+](C)c1C)C(=O)c1cc3ccccc3cc1C2=O | 330 | 13600 | 90 | 90 | – |
| C[n+]1cn(Cc2ccc(F)cc2)c2c1C(=O)c1cc3ccccc3cc1C2=O | 520 | 41100 | 710 | 130 | – |
| Cc1n(Cc2ccccc2)c2c([n+]1C)C(=O)c1cc3ccccc3cc1C2=O | 780 | 30600 | 880 | 520 | – |
| C#CCn1c2c([n+](C)c1C)C(=O)c1cc3ccccc3cc1C2=O | 1710 | 23800 | 250 | 390 | – |
| CC(C)Cn1c[n+](C)c2c1C(=O)c1cc3ccccc3cc1C2=O | 750 | 87400 | 1870 | 770 | – |
| CCn1c[n+](CC)c2c1C(=O)c1cc3ccccc3cc1C2=O | 520 | 63900 | 260 | 180 | – |
| COCCOCCn1c[n+](C)c2c1C(=O)c1cc3ccccc3cc1C2=O | 180 | > 100000 | 210 | 70 | – |
